Laboratory results: ChEMBL document CHEMBL3885861, “Open TG-GATES”

Species: Rattus norvegicus
Assay: Open TG-GATES - Regimen: Single
Type: toxicity, organism-based, Sprague-Dawley
Design: regimen Single, gender Male, age 6 weeks
Settings: in vivo, po, route gavage; for TP / gamma-GTP / ALP / AST / BUN / CRE / Ca / Cl / DBIL / GLC / IP / K / LDH / Na / PL / RALB / TBIL / TC / TG: tissue Plasma; for APTT / Bas / Eos / Ht / MCH / MCHC / MCV / Mono / PT / Plat / RBC / Ret / WBC / Fbg: tissue Blood; for KIDNEY_L / KIDNEY_R / KIDNEY_TOTAL: tissue Kidney; for LIVER: tissue Liver
[1] = 200 mg/kg, 3 h, dose level Middle
[2] = 200 mg/kg, 6 h, dose level Middle
[3] = 200 mg/kg, 9 h, dose level Middle
[4] = 200 mg/kg, 24 h, dose level Middle
[5] = 600 mg/kg, 3 h, dose level High
[6] = 600 mg/kg, 6 h, dose level High
[7] = 600 mg/kg, 9 h, dose level High
[8] = 600 mg/kg, 24 h, dose level High

CC(=O)Nc1nnc(S(N)(=O)=O)s1 [ACETAZOLAMIDE]
TP (60 mg/kg, 24 h, dose level Low): 5.5 g/dL | gamma-GTP (60 mg/kg, 24 h, dose level Low): 1.2 IU/L | TERMINAL_BW [1]: 208.6 g | APTT [1]: 21.4 s | Bas [1]: 0% | Eos [1]: 1% | Ht [1]: 42% | MCH [1]: 21 pg | MCHC [1]: 31.4% | MCV [1]: 66.7 fL | Mono [1]: 2.2% | PT [1]: 16.8 s | Plat [1]: 124.3 x10_4/uL | RBC [1]: 629.8 x10_4/ul | Ret [1]: 8.5% | WBC [1]: 67.2 x10_2/uL | KIDNEY_L [1]: 0.9 g | KIDNEY_R [1]: 0.9 g | KIDNEY_TOTAL [1]: 1.8 g | LIVER [1]: 9.2 g | ALP [1]: 1675.4 IU/L | AST [1]: 71.2 IU/L | BUN [1]: 12.2 mg/dL | CRE [1]: 0.2 mg/dL | Ca [1]: 11.1 mg/dL | Cl [1]: 111.2 meq/L | DBIL [1]: 0 mg/dL | GLC [1]: 186.4 mg/dL | IP [1]: 10.2 mg/dL | K [1]: 3.7 meq/L | LDH [1]: 191.6 IU/L | Na [1]: 140.8 meq/L | PL [1]: 143 mg/dL | RALB [1]: 3.4 g/dL | TBIL [1]: 0.012 mg/dL | TC [1]: 80.4 mg/dL | TP [1]: 6 g/dL | gamma-GTP [1]: 1.2 IU/L | TERMINAL_BW [2]: 207.7 g | APTT [2]: 22.7 s | Bas [2]: 0% | Eos [2]: 1% | Fbg [2]: 356 mg/dL | Ht [2]: 42% | MCH [2]: 21.2 pg | MCHC [2]: 31.2% | MCV [2]: 68 fL | Mono [2]: 2.8% | PT [2]: 16.9 s | Plat [2]: 108.6 x10_4/uL | RBC [2]: 617.6 x10_4/ul | Ret [2]: 8.8% | WBC [2]: 85 x10_2/uL | KIDNEY_L [2]: 1 g | KIDNEY_R [2]: 1 g | KIDNEY_TOTAL [2]: 2 g | LIVER [2]: 8.8 g | ALP [2]: 1625.8 IU/L | AST [2]: 71.2 IU/L | BUN [2]: 11.6 mg/dL | CRE [2]: 0.2 mg/dL | Ca [2]: 11.1 mg/dL | Cl [2]: 113.6 meq/L | DBIL [2]: 0 mg/dL | GLC [2]: 186.8 mg/dL | IP [2]: 9.7 mg/dL | K [2]: 4 meq/L | LDH [2]: 180.8 IU/L | Na [2]: 140 meq/L | PL [2]: 135.8 mg/dL | RALB [2]: 3.4 g/dL | TBIL [2]: 0.024 mg/dL | TC [2]: 84.2 mg/dL | TG [2]: 21.4 mg/dL | TP [2]: 6 g/dL | gamma-GTP [2]: 1.6 IU/L | TERMINAL_BW [3]: 200 g | APTT [3]: 22.9 s | Bas [3]: 0% | Eos [3]: 0.8% | Fbg [3]: 349.4 mg/dL | Ht [3]: 43.2% | MCH [3]: 20.8 pg | MCHC [3]: 31% | MCV [3]: 67.3 fL | Mono [3]: 1.8% | PT [3]: 16.3 s | Plat [3]: 127.1 x10_4/uL | RBC [3]: 644 x10_4/ul | Ret [3]: 8.8% | WBC [3]: 68.1 x10_2/uL | KIDNEY_L [3]: 0.9 g | KIDNEY_R [3]: 1 g | KIDNEY_TOTAL [3]: 1.9 g | LIVER [3]: 7.8 g | ALP [3]: 1777.2 IU/L | AST [3]: 61.6 IU/L | BUN [3]: 13.2 mg/dL | CRE [3]: 0.2 mg/dL | Ca [3]: 11 mg/dL | Cl [3]: 114.4 meq/L | DBIL [3]: 0 mg/dL | GLC [3]: 175 mg/dL | IP [3]: 9.7 mg/dL | K [3]: 3.8 meq/L | LDH [3]: 182.6 IU/L | Na [3]: 139 meq/L | PL [3]: 122.4 mg/dL | RALB [3]: 3.5 g/dL | TBIL [3]: 0.026 mg/dL | TC [3]: 72.4 mg/dL | TG [3]: 13.8 mg/dL | TP [3]: 6.1 g/dL | gamma-GTP [3]: 1.4 IU/L | TERMINAL_BW [4]: 205.9 g | APTT [4]: 21.2 s | Bas [4]: 0% | Eos [4]: 1% | Fbg [4]: 349 mg/dL | Ht [4]: 40.8% | MCH [4]: 20.9 pg | MCV [4]: 62.9 fL | Mono [4]: 2% | PT [4]: 16.8 s | Plat [4]: 132.1 x10_4/uL | RBC [4]: 649.2 x10_4/ul | Ret [4]: 8.1% | WBC [4]: 101.2 x10_2/uL | KIDNEY_L [4]: 1 g | KIDNEY_R [4]: 1 g | KIDNEY_TOTAL [4]: 1.9 g | LIVER [4]: 8.5 g | ALP [4]: 1929.2 IU/L | AST [4]: 53.6 IU/L | BUN [4]: 21.6 mg/dL | CRE [4]: 0.2 mg/dL | Ca [4]: 10.8 mg/dL | Cl [4]: 114.4 meq/L | DBIL [4]: 0 mg/dL | GLC [4]: 189.6 mg/dL | IP [4]: 7.7 mg/dL | K [4]: 3.6 meq/L | LDH [4]: 222.4 IU/L | Na [4]: 142.2 meq/L | PL [4]: 136.2 mg/dL | RALB [4]: 3.2 g/dL | TBIL [4]: 0.016 mg/dL | TC [4]: 86.4 mg/dL | TG [4]: 44.6 mg/dL | TP [4]: 5.7 g/dL | gamma-GTP [4]: 1.4 IU/L | TERMINAL_BW [5]: 215.3 g | APTT [5]: 22.2 s | Bas [5]: 0% | Eos [5]: 1.2% | Fbg [5]: 336.8 mg/dL | Ht [5]: 42.8% | MCH [5]: 21.1 pg | MCHC [5]: 31.1% | MCV [5]: 67.9 fL | Mono [5]: 2% | Plat [5]: 114.9 x10_4/uL | RBC [5]: 630.4 x10_4/ul | Ret [5]: 8.1% | WBC [5]: 60.8 x10_2/uL | KIDNEY_L [5]: 0.9 g | KIDNEY_R [5]: 1 g | KIDNEY_TOTAL [5]: 1.9 g | LIVER [5]: 9.6 g | ALP [5]: 1769.8 IU/L | AST [5]: 76 IU/L | BUN [5]: 12.2 mg/dL | CRE [5]: 0.2 mg/dL | Ca [5]: 11.1 mg/dL | Cl [5]: 112 meq/L | DBIL [5]: 0 mg/dL | GLC [5]: 188.6 mg/dL | IP [5]: 10.5 mg/dL | K [5]: 4 meq/L | LDH [5]: 209.8 IU/L | Na [5]: 140.2 meq/L | PL [5]: 140.4 mg/dL | RALB [5]: 3.3 g/dL | TBIL [5]: 0.008 mg/dL | TG [5]: 24.8 mg/dL | TP [5]: 5.9 g/dL | gamma-GTP [5]: 1.2 IU/L | TERMINAL_BW [6]: 204.7 g | APTT [6]: 23.6 s | Bas [6]: 0% | Eos [6]: 1.4% | Fbg [6]: 340.8 mg/dL | Ht [6]: 42.8% | MCH [6]: 21.2 pg | MCHC [6]: 31.1% | MCV [6]: 68 fL | Mono [6]: 2.4% | PT [6]: 16.8 s | Plat [6]: 120.2 x10_4/uL | RBC [6]: 628.2 x10_4/ul | Ret [6]: 8.5% | WBC [6]: 85.2 x10_2/uL | KIDNEY_L [6]: 0.9 g | KIDNEY_R [6]: 1 g | KIDNEY_TOTAL [6]: 1.9 g | LIVER [6]: 8.3 g | ALP [6]: 1569.2 IU/L | AST [6]: 69 IU/L | BUN [6]: 10.6 mg/dL | CRE [6]: 0.2 mg/dL | Ca [6]: 11.1 mg/dL | Cl [6]: 113 meq/L | DBIL [6]: 0 mg/dL | GLC [6]: 185.2 mg/dL | IP [6]: 10.1 mg/dL | K [6]: 3.8 meq/L | LDH [6]: 205.4 IU/L | Na [6]: 138.4 meq/L | PL [6]: 149.8 mg/dL | RALB [6]: 3.4 g/dL | TBIL [6]: 0.016 mg/dL | TC [6]: 90.4 mg/dL | TG [6]: 23 mg/dL | TP [6]: 6 g/dL | gamma-GTP [6]: 1.2 IU/L | TERMINAL_BW [7]: 201.6 g | APTT [7]: 24 s | Bas [7]: 0% | Eos [7]: 0.8% | Fbg [7]: 344.6 mg/dL | Ht [7]: 43% | MCHC [7]: 30.9% | MCV [7]: 66.6 fL | Mono [7]: 2.2% | PT [7]: 16 s | Plat [7]: 123.6 x10_4/uL | RBC [7]: 645.4 x10_4/ul | Ret [7]: 8.8% | WBC [7]: 51.5 x10_2/uL | KIDNEY_L [7]: 0.9 g | KIDNEY_R [7]: 0.9 g | KIDNEY_TOTAL [7]: 1.9 g | LIVER [7]: 7.7 g | ALP [7]: 1753.6 IU/L | AST [7]: 59 IU/L | BUN [7]: 13.4 mg/dL | CRE [7]: 0.2 mg/dL | Ca [7]: 11 mg/dL | Cl [7]: 114.2 meq/L | DBIL [7]: 0 mg/dL | GLC [7]: 172.6 mg/dL | IP [7]: 10 mg/dL | K [7]: 3.8 meq/L | LDH [7]: 176.4 IU/L | Na [7]: 138.6 meq/L | PL [7]: 127.8 mg/dL | RALB [7]: 3.4 g/dL | TBIL [7]: 0.02 mg/dL | TC [7]: 85 mg/dL | TG [7]: 11.4 mg/dL | TP [7]: 6.1 g/dL | gamma-GTP [7]: 1.2 IU/L | TERMINAL_BW [8]: 199.5 g | APTT [8]: 22.2 s | Bas [8]: 0% | Eos [8]: 1% | Fbg [8]: 359.2 mg/dL | Ht [8]: 41.1% | MCH [8]: 20.3 pg | MCHC [8]: 32.8% | MCV [8]: 61.9 fL | Mono [8]: 2.2% | PT [8]: 16.9 s | Plat [8]: 112.5 x10_4/uL | RBC [8]: 663.8 x10_4/ul | Ret [8]: 8% | WBC [8]: 74.5 x10_2/uL | KIDNEY_L [8]: 0.9 g | KIDNEY_R [8]: 0.9 g | KIDNEY_TOTAL [8]: 1.9 g | LIVER [8]: 7.9 g | ALP [8]: 1549.4 IU/L | AST [8]: 49.6 IU/L | BUN [8]: 18.8 mg/dL | CRE [8]: 0.2 mg/dL | Ca [8]: 10.7 mg/dL | Cl [8]: 116.8 meq/L | DBIL [8]: 0 mg/dL | IP [8]: 8.2 mg/dL | K [8]: 3.8 meq/L | LDH [8]: 205.2 IU/L | Na [8]: 140.6 meq/L | PL [8]: 137.4 mg/dL | RALB [8]: 3.5 g/dL | TBIL [8]: 0.016 mg/dL | TC [8]: 89.6 mg/dL | TG [8]: 26.8 mg/dL | TP [8]: 6 g/dL | gamma-GTP [8]: 1.2 IU/L
